These results are taken from patent publication US20050222269A1, “Use of deprenyl compounds to treat viral infections and reduce tissue damage associated therewith” (priority 1998, published 2005).

For one series, the system named is ClR/env cells. The experiment in a line: CTL-mediated killing (51Cr release) of C1R/env cells expressing SIV env. It counts as cell-based, human. The conditions noted are these: for Effect on CTL-mediated cell killing / lysis (in words): C1R/env cells; for Percent Specific Lysis: ClR/env target cells, compound 1.0 nM added at beginning of 5 hour assay, 51Cr release.

A further series concerns Hela T4/env cells. Nature of the series: CTL-mediated killing (51Cr release) of Hela T4/env cells expressing SIV env. It counts as cell-based. The conditions noted are these: for Effect on CTL-mediated cell killing / lysis (in words): Hela T4/env cells; for Percent Specific Lysis: Hela T4/env target cells, compound 1.0 nM added at beginning of 5 hour assay, 51Cr release.
For the next series, the system named is rh BLCL/env cells. The experiment in a line: CTL-mediated killing (51Cr release) of rh BLCL/env cells expressing SIV env. The settings on record: for Effect on CTL-mediated cell killing / lysis (in words): rh BLCL/env cells; for Percent Specific Lysis: rh BLCL/env target cells, compound 1.0 nM added at beginning of 5 hour assay, 51Cr release. It counts as cell-based, rhesus monkey.

The next series deals with huBLCL/env cells. Nature of the series: CTL-mediated killing (51Cr release) of huBLCL/env cells expressing SIV env. It counts as cell-based, human. The settings on record: for Percent Specific Lysis: hu BLCL/env target cells, compound 1.0 nM added at beginning of 5 hour assay, 51Cr release.
In another series the target is GAPDH (Homo sapiens, UniProt P04406). It counts as biochemical. The conditions noted are these: gel filtration of GAPDH incubated with DMD. (SEC sorts molecules by how far they enter the pores of the column.)
Series [1] is described as follows: Stability of deprenyl as a function of pH of the medium. It counts as physicochemical. The settings on record: pH about 3-5 versus pH about 7. From the text: The stability of deprenyl can be affected by the pH of the medium in which the deprenyl is formulated. […] Therefore, when formulating a deprenyl compound in a pharmaceutical composition, it is preferred that the deprenyl compound be maintained at a suitable pH. In preferred embodiments, a pharmaceutical composition of the invention has a pH in the range of about 3 to about 5, more preferably about 3 to about 4. Furthermore, ethyl alcohol is a preferred solvent for improving stability of deprenyl. Thus, in certain embodiments, alcoholic or aqueous alcoholic media are preferred for the pharmaceutical compositions of the invention.

Structures are written as SMILES.

GAPDH, sequence (P04406 whole entry, species assumed): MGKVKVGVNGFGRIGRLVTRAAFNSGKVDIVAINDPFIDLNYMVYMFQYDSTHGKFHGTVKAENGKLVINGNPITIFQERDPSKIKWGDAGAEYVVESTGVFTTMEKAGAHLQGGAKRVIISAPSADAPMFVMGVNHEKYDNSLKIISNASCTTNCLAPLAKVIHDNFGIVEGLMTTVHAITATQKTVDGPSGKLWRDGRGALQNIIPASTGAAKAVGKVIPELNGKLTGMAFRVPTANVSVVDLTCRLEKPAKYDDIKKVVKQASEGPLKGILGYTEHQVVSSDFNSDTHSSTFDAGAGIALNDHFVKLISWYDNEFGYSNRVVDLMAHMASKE

For `C#CCNC(C)Cc1ccccc1` (single isomer, unassigned; (-)) [Desm., (−)-desmethyldeprenyl], the “Effect on CTL-mediated cell killing / lysis (in words)” value with ClR/env cells, in the series on Hela T4/env cells, with rh BLCL/env cells and in the series with huBLCL/env cells (huBLCL/env cells) was “reduced cell killing in all four cell lines” throughout. Further, the “Percent Specific Lysis” value with ClR/env cells is 6.98%; with Hela T4/env cells it was 30.65%; with rh BLCL/env cells it was 4.34%; with huBLCL/env cells, −1.85%. In addition, at GAPDH, the “Effect on association of GAPDH monomers (tetrameric vs dimeric form)” value is reported as “inducing the conversion of GAPDH from the tetrameric form to the dimeric form”.
Take `CC(=O)N[C@@H](CS)C(=O)O` [NAC, N-acetyl cysteine]: the “Effect on CTL-mediated cell killing / lysis (in words)” value with ClR/env cells, in the series with Hela T4/env cells and in the series with rh BLCL/env cells was “effective in reducing lysis” in each case. The “Percent Specific Lysis” value worked out at 29.12% in the series with ClR/env cells, 30.74% with Hela T4/env cells, 6.32% in the series with rh BLCL/env cells and 13.41% in the series on huBLCL/env cells.
For the compound `C#CCN(C)C(C)Cc1ccccc1` (stereo not drawn) [deprenyl, N,α-dimethyl-N-2-propynylphenethylamine], in series [1], the “Stability depending on pH” value is given as “more stable at a pH in the range of about 3-5 than at a pH of about 7”.
